Data from ChEMBL document CHEMBL5143625, “Isolation, synthesis and bioactivity evaluation of isoquinoline alkaloids from Corydalis hendersonii Hemsl. against gastric cancer in vitro and in vivo” (Bioorg Med Chem, 2022).
Calls of active or inactive are those of the source. The calls are words filed in the database; no cut-off is given here.

Assays:
[1] = test system: HGC-27; test: Inhibition of colony formation in human HGC-27 cells at 1 to 8 uM after 7 to 10 days by crystal violet staining based assay; assay type: functional, cell-based; conditions: dose 1-8 µM, time 7-10 day, DDE = dose-dependent effect
[2] = test system: MGC-803; test: Inhibition of cell invasion in human MGC-803 cells assessed as reduction in invasion at 0.5 to 4 uM for 24 hrs by transwell invasion assay; assay type: functional, cell-based; conditions: dose 0.5-4 µM, DDE = dose-dependent effect
[3] = test system: MGC-803; test: Down regulation of MMP9 expression in human MGC-803 cells at 1.25 to 10 uM after 24 hrs by western blot analysis; assay type: functional, cell-based; conditions: dose 1.25-10 µM, DDE = dose-dependent effect
[4] = test system: HGC-27; test: Down regulation of MMP9 expression in human HGC-27 cells at 2 to 16 uM after 24 hrs by western blot analysis; assay type: functional, cell-based; conditions: dose 2-16 µM, DDE = dose-dependent effect
[5] = test system: MGC-803; test: Induction of apoptosis in human MGC-803 cells assessed as increase in twin-kiling cell nuclei at 1.25 to 10 uM by Hoechst 33342 staining based fluorescent microscopic analysis; assay type: functional; conditions: dose 1.25-10 µM
[6] = test system: MGC-803; test: Induction of apoptosis in human MGC-803 cells assessed as reduction in BCl2 expression at 1.25 to 10 uM by western blot analysis; assay type: functional, cell-based; conditions: dose 1.25-10 µM, DDE = dose-dependent effect
[7] = test system: HGC-27; test: Induction of apoptosis in human HGC-27 cells assessed as reduction in BCl2 expression at 2 to 16 uM by western blot analysis; assay type: functional, cell-based; conditions: dose 2-16 µM, DDE = dose-dependent effect
[8] = test system: HGC-27; test: Induction of apoptosis in human HGC-27 cells assessed as increase in Bax expression at 2 to 16 uM by western blot analysis; assay type: functional, cell-based; conditions: dose 2-16 µM, DDE = dose-dependent effect
[9] = test system: MGC-803; test: Induction of apoptosis in human MGC-803 cells assessed as increase in cleaved caspase-3 expression at 1.25 to 10 uM by western blot analysis; assay type: functional, cell-based; conditions: dose 1.25-10 µM, DDE = dose-dependent effect
[10] = test system: HGC-27; test: Inhibition of PI3K/AKT/mTOR signalling pathway in human HGC-27 cells assessed as reduction in PI3K phosphorylation at 2 to 16 uM by western blot analysis; assay type: cell-based; conditions: dose 2-16 µM, DDE = dose-dependent effect
[11] = test system: MGC-803; test: Inhibition of PI3K/AKT/mTOR signalling pathway in human MGC-803 cells assessed as reduction in AKT phosphorylation at 1.25 to 10 uM by western blot analysis; assay type: cell-based; conditions: dose 1.25-10 µM, DDE = dose-dependent effect
[12] = test system: HGC-27; test: Inhibition of PI3K/AKT/mTOR signalling pathway in human HGC-27 cells assessed as reduction in mTOR phosphorylation at 2 to 16 uM by western blot analysis; assay type: cell-based; conditions: dose 2-16 µM, DDE = dose-dependent effect
[13] = species: Homo sapiens; test: Inhibition of DNA topoisomerase 1 (unknown origin) assessed as relaxation of supercoiled plasmid pBR322 DNA at 12.5 to 100 uM incubated for 30 mins by agarose gel electrophoresis; conditions: dose 12.5-100 µM
[14] = test system: HGC-27; test: Inhibition of DNA topoisomerase 1 in human HGC-27 cells assessed as relaxation of supercoiled plasmid pBR322 DNA at 15 to 30 uM incubated for 30 mins by agarose gel electrophoresis; assay type: cell-based; conditions: dose 15-30 µM
[15] = Half life in Sprague-Dawley rat at 50 mg/kg, ip measured upto 24 hrs by LC-MS analysis; assay type: ADME, organism-based; conditions: in vivo
[16] = Tmax in Sprague-Dawley rat at 50 mg/kg, ip measured upto hrs by LC-MS analysis; assay type: ADME, organism-based; conditions: in vivo, time < 24 hrs
[17] = test system: MGC-803; test: Antitumor activity against human MGC-803 cells xenografted in immunodeficient nude mouse assessed as tumor volume at 50 mg/kg, ip administered for 3 weeks (reference value: 1039.6 mm3); assay type: functional
[18] = test system: MGC-803; test: Antitumor activity against human MGC-803 cells xenografted in immunodeficient nude mouse assessed as reduction in tumor growth at 50 mg/kg, ip administered for 3 weeks relative to control; assay type: functional; conditions: MGC-803, 504 h, read-out: TGI

In the case of Oc1c(Cc2nccc3cc4c(cc23)OCO4)ccc2c1OCO2, the inhibition [1] was “Dde”, the inhibition [2] was “Dde” and the Activity [3] was “Dde”. The Activity [4] was “Dde”, the Activity [5] was 29.5% and the Activity ([5]; DDE = dose-dependent effect) was “Dde”. The Activity [6] was “Dde”, the Activity [7] was “Dde” and the Activity [8] was “Dde”. For the same compound, the Activity [9] was “Dde”, the inhibition [10] was “Dde” and the inhibition [11] was “Dde”. For the same compound, the inhibition [12] was “Dde”, the inhibition [13] was “Active” and the inhibition [14] was “Active”. The half-life [15] was 2.3 h, the Tmax [16] was 2 h and the Activity [17] was 440.1 mm3. It also gave an inhibition in vivo at 50 mg/kg [18] of 63.8%.
